Reference: patent EP4721767A1 (priority 2023, dated 2024)
Where “and” joins values, the source holds several entries; their conditions need not be identical. Equal entries are not always repeated.

T1: human B7-H3 naturally expressed on the surface of SKOV3 cells (human, UniProt Q5ZPR3 29-534)
T1 construct: whole, on cells; also called surface antigen of SKOV3 cells; B7-H3 on the surface of SKOV3 cells
T1 sequence (looked up): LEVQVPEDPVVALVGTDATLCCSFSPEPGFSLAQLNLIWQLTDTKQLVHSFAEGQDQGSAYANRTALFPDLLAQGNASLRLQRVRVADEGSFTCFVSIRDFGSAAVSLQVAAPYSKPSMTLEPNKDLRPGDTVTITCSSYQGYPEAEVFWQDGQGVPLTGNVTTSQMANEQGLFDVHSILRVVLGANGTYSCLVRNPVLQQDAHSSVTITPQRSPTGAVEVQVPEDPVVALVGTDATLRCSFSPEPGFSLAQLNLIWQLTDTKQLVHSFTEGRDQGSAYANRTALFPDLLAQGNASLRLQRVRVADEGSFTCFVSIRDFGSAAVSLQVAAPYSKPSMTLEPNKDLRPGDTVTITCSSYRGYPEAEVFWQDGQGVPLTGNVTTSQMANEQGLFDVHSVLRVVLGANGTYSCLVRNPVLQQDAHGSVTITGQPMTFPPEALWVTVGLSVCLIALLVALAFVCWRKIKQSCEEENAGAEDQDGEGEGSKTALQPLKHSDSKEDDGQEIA

T2: Recombinant human B7-H3 extracellular domain protein (UniProtKB-Q5ZPR3, amino acids 1-461, C-His tag) (human, UniProt Q5ZPR3 29-461)
T2 construct: range 1-461; The printed range 1-461 starts at residue 1 and so covers the signal peptide; also called human B7-H3 ECD-His; recombinant human B7-H3 ECD protein; not shown: C-terminal His tag
T2 sequence (looked up): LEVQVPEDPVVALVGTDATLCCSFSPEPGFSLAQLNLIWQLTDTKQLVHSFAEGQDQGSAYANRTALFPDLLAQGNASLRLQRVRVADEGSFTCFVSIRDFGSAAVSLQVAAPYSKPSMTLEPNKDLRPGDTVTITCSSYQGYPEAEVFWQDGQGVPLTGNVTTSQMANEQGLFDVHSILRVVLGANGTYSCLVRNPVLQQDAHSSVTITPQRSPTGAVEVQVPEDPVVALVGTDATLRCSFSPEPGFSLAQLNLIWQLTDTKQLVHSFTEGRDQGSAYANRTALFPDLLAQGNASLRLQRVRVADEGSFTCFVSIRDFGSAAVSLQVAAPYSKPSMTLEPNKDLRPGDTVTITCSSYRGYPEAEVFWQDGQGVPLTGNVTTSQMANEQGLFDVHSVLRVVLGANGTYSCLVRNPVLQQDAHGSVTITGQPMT


What was measured:
[1] = system: BxPC-3 human pancreatic adenocarcinoma cells; experiment: cells; format: cell-based; details: BxPC-3, killing 4 days; for EC50: Homo sapiens, BXPC-3, 96 h
[2] = system: NCI-N87 human gastric cancer cells; experiment: cells; format: cell-based; details: NCI-N87, killing 4 days; for EC50: Homo sapiens, NCI-N87, 96 h
[3] = system: KB oral epithelial cancer cells; experiment: Cell killing activity of camptothecins (CCK-8); format: cell-based; details: killing 4 days; for EC50: 96 h
Method: (§1) KB oral epithelial cancer cells (purchased from: ATCC) were cultured in DMEM medium supplemented with 10% FBS; NCI-N87 human gastric cancer cells (purchased from: ATCC) were cultured in RPMI1640 medium supplemented with 10% FBS; HT29 human colon cancer cells (purchased from: ATCC) were cultured in RPMI1640 medium supplemented with 10% FBS; and BxPC-3 human pancreatic adenocarcinoma cells (purchased from: ATCC) were cultured in RPMI1640 medium supplemented with 10% FBS.
(§2) Using corresponding media described above and in cell plates, the density of KB cells was adjusted to 2×10^4/mL; the density of NCI-N87 cells was adjusted to 5×10^4/mL; the density of HT29 cells was adjusted to 5×10^4/mL, and the cells were plated onto 96-well transparent flat bottom plates, at 100 µL/well, and cultured overnight; and the density of BxPC-3 cells was adjusted to 5×10^4/mL.
(§3) Samples to be detected were diluted to 20 µM with corresponding media, then 5-fold gradient dilution was performed, and 9 concentrations were obtained. A well having cells but with no any sample added was set as the well showing maximum cell growth; and a well having no cells was set as the well of medium background. The diluted samples were added into the cell plates, at 100 µL/well, which were then incubated in a CO2 incubator for 96 hours. After the incubation, CCK-8 (purchased from: DOJINDO LABORATORIES) prepared beforehand was added into the plates, at 20 µL/well, and after further 3 hours of incubation in the CO2 incubator, OD values at 450 nm were read on a microplate reader.
(§4) Data obtained was fitted to a four-parameter curve using software Prism7, and equation for calculating maximum killing is: maximum killing (%) = 1 - (OD450 value of the well showing maximum killing - OD450 value of the well of medium background) / (OD450 value of the well showing maximum cell growth - OD450 value of the cell of medium background) × 100%. Table 6. Results of comparative study on the activity of camptothecins

[4] = system: HT29 human colon cancer cells; experiment: Cell killing activity of camptothecins (CCK-8); format: cell-based; details: HT29, killing 4 days; for EC50: Homo sapiens, HT-29, 96 h
Method: as §1, §2, §3, §4

[5] = target: T1, human B7-H3 naturally expressed on the …; experiment: flow cytometry (MFI) on SKOV3 cells naturally expressing human B7-H3
[6] = target: T2, Recombinant human B7-H3 extracellular …; experiment: BLI (ForteBio Octet QKe), antibody on AHC probes, 60 nM antigen, 1:1 Langmuir fit

EC50 [5] | Kd [6] | koff [6] | kon [6] | Molecule | EC50 [1] | EC50 [2] | further results
 |  |  |  | CC[C@@]1(O)C(=O)OCc2c1cc1n(c2=O)Cc2c-1nc1cc(F)c(N)c3c1c2C(F)(F)CS3 [Compound 27] | 1.52 nM | 1.75 nM | 
 |  |  |  | CC[C@@]1(O)C(=O)OCc2c1cc1n(c2=O)Cc2c-1nc1ccc(N)c3c1c2CC[S@+]3[O-] [Compound 14-P1] |  | 503 nM | 
 |  |  |  | CC[C@@]1(O)C(=O)OCc2c1cc1n(c2=O)Cc2c-1nc1ccc(N)c3c1c2C1CC1C3 (stereo partly drawn) [Compound 7] | 11.4 nM | 3.31 nM | 
 |  |  |  | CC[C@@]1(O)C(=O)OCc2c1cc1n(c2=O)Cc2c-1nc1ccc(N)c3c1c2CCS3(=O)=O [Compound 15] | 79.6 nM | 178 nM | 
 |  |  |  | CC[C@@]1(O)C(=O)OCc2c1cc1n(c2=O)Cc2c-1nc1cc(F)c(N)c3c1c2CCS3 [Compound 26] | 1.11 nM | 1.02 nM | 
 |  |  |  | CC[C@@]1(O)C(=O)OCc2c1cc1n(c2=O)Cc2c-1nc1ccc(N)c3c1c2CCS3 [Compound 12] | 2.15 nM | 8.43 nM | 
 |  |  |  | CC[C@@]1(O)C(=O)OCc2c1cc1n(c2=O)Cc2c-1nc1ccc(N)c3c1c2CC[S@@+]3[O-] [Compound 14-P2] |  | 2000 nM | 
 |  |  |  | CC[C@@]1(O)C(=O)OCc2c1cc1n(c2=O)Cc2c-1nc1cc(F)c(N)c3c1c2C(F)(F)CO3 [Compound 19] | 1.4 nM | 0.864 nM | Maximum Killing (%) [2]: 93.5%
 |  |  |  | CC[C@@]1(O)C(=O)OCc2c1cc1n(c2=O)Cc2c-1nc1cc(F)c(C)c3c1c2[C@@H](NC(=O)CO)CC3 [Dxd, reference compound] | 33.7 nM |  | EC50 [3]: 138 nM; EC50 [4]: 133 nM; Maximum Killing (%) [1]: 93.1%; Maximum Killing (%) [2]: 93.3%
 |  |  |  | CC[C@@]1(O)C(=O)OCc2c1cc1n(c2=O)Cc2c-1nc1ccc(N)c3c1c2C(C)(C)CC3 [Compound 1] |  | 21.9 nM | EC50 [3]: 52.3 nM; Maximum Killing (%) [3]: 97.6%; Maximum Killing (%) [4]: 91.9%; EC50 [4]: 43.4 nM
 |  |  |  | CC[C@@]1(O)C(=O)OCc2c1cc1n(c2=O)Cc2c-1nc1cc(F)c(N)c3c1c2CCO3 [Compound 18] | 1.45 nM | 1.57 nM | 
 |  |  |  | CC[C@@]1(O)C(=O)OCc2c1cc1n(c2=O)Cc2c-1nc1ccc(N)c3c1c2C(F)(F)CO3 [Compound 31] | 4.42 nM | 8.59 nM | 
 |  |  |  | CC[C@@]1(O)C(=O)OCc2c1cc1n(c2=O)Cc2c-1nc1ccc(N)c3c1c2CCC3 [MWC-1, reference compound] |  |  | EC50 [3]: 15.7 nM; Maximum Killing (%) [3]: 98.6%; Maximum Killing (%) [4]: 89% and 89.9%; Maximum Killing (%) [2]: 93.3%
1.58 nM | 0.216 nM | 0.000143 s⁻¹ | 665000 M⁻¹ s⁻¹ | hz10B4 (antibody, V domains shown, Humanized anti-B7-H3 antibody prepared by the method of CN114573695A; also called parent hz10B4; hz10B4-VH×hz10B4-VL) VH: EVQLVQSGAEVKKPGASVKVSCKASGYTFTEYIMHWVRQAPGQGLEWMGGINPASGGTTYNQKFKGRVTMTRDTSISTAYMELSRLRSEDTAVYYCARKGKDYFDWYFDVWGQGTTVTVSS VL: DIQLTQSPSSLSASVGDRVTMTCSASSSVSYMHWYQQKPGKAPKLLIYDTSKLASGVPSRFSGSGSGTDFTLTISSLQPEDFATYYCQQWSSNPLTFGGGTKVEIK |  |  | 
1.89 nM | 0.352 nM | 0.000225 s⁻¹ | 639000 M⁻¹ s⁻¹ | hz10B4m1 (antibody, V domains shown, LCDR3 variant of hz10B4 (SSN→SSA); also called hz10B4-VH×hz10B4-Lm1-VL) VH: EVQLVQSGAEVKKPGASVKVSCKASGYTFTEYIMHWVRQAPGQGLEWMGGINPASGGTTYNQKFKGRVTMTRDTSISTAYMELSRLRSEDTAVYYCARKGKDYFDWYFDVWGQGTTVTVSS VL: DIQLTQSPSSLSASVGDRVTMTCSASSSVSYMHWYQQKPGKAPKLLIYDTSKLASGVPSRFSGSGSGTDFTLTISSLQPEDFATYYCQQWSSAPLTFGGGTKVEIK |  |  | 
1.59 nM | 0.422 nM | 0.000281 s⁻¹ | 666000 M⁻¹ s⁻¹ | hz10B4m3 (antibody, V domains shown, LCDR3 variant of hz10B4 (SSN→SSQ); also called hz10B4-VH×hz10B4-Lm3-VL) VH: EVQLVQSGAEVKKPGASVKVSCKASGYTFTEYIMHWVRQAPGQGLEWMGGINPASGGTTYNQKFKGRVTMTRDTSISTAYMELSRLRSEDTAVYYCARKGKDYFDWYFDVWGQGTTVTVSS VL: DIQLTQSPSSLSASVGDRVTMTCSASSSVSYMHWYQQKPGKAPKLLIYDTSKLASGVPSRFSGSGSGTDFTLTISSLQPEDFATYYCQQWSSQPLTFGGGTKVEIK |  |  | 
16.9 nM | 0.831 nM | 0.00042 s⁻¹ | 505000 M⁻¹ s⁻¹ | hz10B4m4 (antibody, V domains shown, LCDR3 variant of hz10B4 (SSN→SSG); also called hz10B4-VH×hz10B4-Lm4-VL) VH: EVQLVQSGAEVKKPGASVKVSCKASGYTFTEYIMHWVRQAPGQGLEWMGGINPASGGTTYNQKFKGRVTMTRDTSISTAYMELSRLRSEDTAVYYCARKGKDYFDWYFDVWGQGTTVTVSS VL: DIQLTQSPSSLSASVGDRVTMTCSASSSVSYMHWYQQKPGKAPKLLIYDTSKLASGVPSRFSGSGSGTDFTLTISSLQPEDFATYYCQQWSSGPLTFGGGTKVEIK |  |  | 
1.45 nM | 0.381 nM | 0.000287 s⁻¹ | 755000 M⁻¹ s⁻¹ | hz10B4m2 (antibody, V domains shown, LCDR3 variant of hz10B4 (SSN→SAS); also called hz10B4-VH×hz10B4-Lm2-VL) VH: EVQLVQSGAEVKKPGASVKVSCKASGYTFTEYIMHWVRQAPGQGLEWMGGINPASGGTTYNQKFKGRVTMTRDTSISTAYMELSRLRSEDTAVYYCARKGKDYFDWYFDVWGQGTTVTVSS VL: DIQLTQSPSSLSASVGDRVTMTCSASSSVSYMHWYQQKPGKAPKLLIYDTSKLASGVPSRFSGSGSGTDFTLTISSLQPEDFATYYCQQWSASPLTFGGGTKVEIK |  |  | 
2.25 nM | 0.568 nM | 0.000336 s⁻¹ | 592000 M⁻¹ s⁻¹ | hz10B4m5 (antibody, V domains shown, LCDR3 variant of hz10B4 (SSN→SGS); also called hz10B4-VH×hz10B4-Lm5-VL) VH: EVQLVQSGAEVKKPGASVKVSCKASGYTFTEYIMHWVRQAPGQGLEWMGGINPASGGTTYNQKFKGRVTMTRDTSISTAYMELSRLRSEDTAVYYCARKGKDYFDWYFDVWGQGTTVTVSS VL: DIQLTQSPSSLSASVGDRVTMTCSASSSVSYMHWYQQKPGKAPKLLIYDTSKLASGVPSRFSGSGSGTDFTLTISSLQPEDFATYYCQQWSGSPLTFGGGTKVEIK |  |  | 
